# Test results as given in patent US20080269306A1, “Antidepressant Medicament Comprising Idazoxan and a Selective Serotonin Reuptake Inhibitor” (ALPHA 2 PHARMACEUTICA AB, priority 2004, published 2008).
# How the values were obtained:
# [1] = test system: noradrenaline output in the medial prefrontal cortex; assay: Microdialysis: noradrenaline output in the medial prefrontal cortex of freely moving rats; type: in vivo, rat; settings: for effect on noradrenaline output in the medial prefrontal cortex: citalopram alone, or low dose of Idazoxan added to citalopram; for NORADRENALINE Medial Prefrontal Cortex, mean values: n = 5
# Experimental: (§1) Adult male BK1:WR (Wistar) rats weighing 230-390 g were used in all experiments. Animals arrived at least five days prior to experimental use and were housed (4 per cage [Makrolon IV]) in the animal facility under standard laboratory conditions with a 12 h light/dark cycle with lights on at 6.00 a.m. All experiments were performed between 8.00 a.m. and 6.00 p.m. Food and water were available ad lib. All experiments were approved by, and conducted in accordance with, the local Animal Ethics Committee (Stockholms Norra och Södra Försöksdjursetiska Kommittéer) (permits no. N216/00, N11/00). The probe implantation and dialysis procedure, as well as the biochemical analyses, were similar to those previously described (Hertel et al 1996, […] et al 1999). Anesthetized male BKI:WR (Wistar) rats (B&K Universal, Sollentuna, Sweden; sodium pentobarbital, 60 mg/kg, intraperitoneal; i.p.) were implanted with dialysis probes in the medial prefrontal cortex (mPFC) [AP: +2.6; ML: -0.6; DV: -5.2], relative to bregma and dural surface (Paxinos and Watson 1998). Dialysis occurred through a semipermeable membrane (AN69 Hospal) with an active surface length of 4 mm. Dialysis experiments were conducted approximately 48 h after surgery in freely moving rats. The dialysis probe was perfused with a physiological perfusion solution (147 mM sodium chloride, 3.0 mM potassium chloride, 1.3 mM calcium chloride, 1.0 mM magnesium chloride, and 1.0 mM sodium phosphate, pH 7.4) at a rate of 2.5 μl/min set by a microinfusion pump (Harvard Apparatus, Holliston, Mass.). On-line quantification of noradrenaline (NA) or dopamine (DA) in the dialysate was accomplished by high pressure liquid chromatography coupled to electrochemical detection. The placement of the probe was later verified in slices stained with neutral red. 2-Way Anova (treatment×time) followed by Neuman-Keuls Post Hoc comparison test.
# [2] = test system: dopamine output in the medial prefrontal cortex; assay: Microdialysis: dopamine output in the medial prefrontal cortex of freely moving rats; type: in vivo, rat; settings: for effect on dopamine output in the medial prefrontal cortex: citalopram alone, or low dose of Idazoxan added to citalopram; for DOPAMINE Medial Prefrontal Cortex, mean values: n = 5
# Experimental: as §1
# [3] = awake freely moving rat, low dose of Idazoxan added to citalopram
# [4] = TIME 30 min, after citalopram 5 mg/kg s.c., before saline/idazoxan
# [5] = TIME 60 min, after citalopram 5 mg/kg s.c., before saline/idazoxan
# [6] = TIME 90 min, after citalopram 5 mg/kg s.c., before saline/idazoxan
# [7] = TIME 120 min, citalopram 5 mg/kg s.c., then saline 1 ml/kg or idazoxan 1.5 mg/kg s.c. after the 90 min sample
# [8] = TIME 150 min, citalopram 5 mg/kg s.c., then saline 1 ml/kg or idazoxan 1.5 mg/kg s.c. after the 90 min sample
# [9] = TIME 180 min, citalopram 5 mg/kg s.c., then saline 1 ml/kg or idazoxan 1.5 mg/kg s.c. after the 90 min sample
# [10] = TIME 210 min, citalopram 5 mg/kg s.c., then saline 1 ml/kg or idazoxan 1.5 mg/kg s.c. after the 90 min sample
# [11] = TIME 240 min, citalopram 5 mg/kg s.c., then saline 1 ml/kg or idazoxan 1.5 mg/kg s.c. after the 90 min sample
# [12] = TIME 270 min, citalopram 5 mg/kg s.c., then saline 1 ml/kg or idazoxan 1.5 mg/kg s.c. after the 90 min sample
smiles,measurement,setting,value
"c1ccc2c(c1)OCC(C1=NCCN1)O2 (racemic) [Idazoxan, 2-(1,4-benzodioxan-2-yl)-2-imidazoline]",effect on noradrenaline output in the medial prefrontal cortex,[1]; awake freely moving rat,significant increase
same,duration of the increase in noradrenaline output,[1]; [3],approximately 2 hours
same,effect on dopamine output in the medial prefrontal cortex,[2]; awake freely moving rat,significant increase
same,duration of the increase in dopamine output,[2]; [3],approximately 2 hours
"CN(C)CCCC1(c2ccc(F)cc2)OCc2cc(C#N)ccc21 (stereo not drawn) [Citalopram + Saline, Citalopram]","NORADRENALINE Medial Prefrontal Cortex, mean values",[1]; [4],127.8 % Baseline
same,"NORADRENALINE Medial Prefrontal Cortex, mean values",[1]; [5],118.8 % Baseline
same,"NORADRENALINE Medial Prefrontal Cortex, mean values",[1]; [6],105.5 % Baseline
same,"NORADRENALINE Medial Prefrontal Cortex, mean values",[1]; [7],114.6 % Baseline
same,"NORADRENALINE Medial Prefrontal Cortex, mean values",[1]; [8],103.2 % Baseline
same,"NORADRENALINE Medial Prefrontal Cortex, mean values",[1]; [9],81.6 % Baseline
same,"NORADRENALINE Medial Prefrontal Cortex, mean values",[1]; [10],88.7 % Baseline
same,"NORADRENALINE Medial Prefrontal Cortex, mean values",[1]; [11],83.7 % Baseline
same,"NORADRENALINE Medial Prefrontal Cortex, mean values",[1]; [12],87.9 % Baseline
same,effect on noradrenaline output in the medial prefrontal cortex,[1]; awake freely moving rat,does not per se affect
same,"DOPAMINE Medial Prefrontal Cortex, mean values",[2]; [4],129.4 % Baseline
same,"DOPAMINE Medial Prefrontal Cortex, mean values",[2]; [5],104.5 % Baseline
same,"DOPAMINE Medial Prefrontal Cortex, mean values",[2]; [6],109.1 % Baseline
same,"DOPAMINE Medial Prefrontal Cortex, mean values",[2]; [7],127.8 % Baseline
same,"DOPAMINE Medial Prefrontal Cortex, mean values",[2]; [8],110.3 % Baseline
same,"DOPAMINE Medial Prefrontal Cortex, mean values",[2]; [9],97.7 % Baseline
same,"DOPAMINE Medial Prefrontal Cortex, mean values",[2]; [10],88.0 % Baseline
same,"DOPAMINE Medial Prefrontal Cortex, mean values",[2]; [11],104.5 % Baseline
same,"DOPAMINE Medial Prefrontal Cortex, mean values",[2]; [12],94.1 % Baseline
same,effect on dopamine output in the medial prefrontal cortex,[2]; awake freely moving rat,does not per se affect
